From patent US12691096B2, “Drug-controlled systems and uses thereof” (TRUSTEES OF BOSTON UNIVERSITY, priority 2020, dated 2026)

Assays:
dNS3 [1] = target: T1, dNS3 (Hepatitis C virus genotype 1b, UniProt P26663, A1092G/F1173S/K1113A/P1112Q/S1165A); type: cell-based, hepatitis C virus (HCV); details: dNS3-NLuc and CLuc-PMED; HEK293FT lysates; drug added at time of transfection, 48 hours
T1 construct: expressed in transfected cells; host or cells: HEK293FT (read in lysate)
Method: To test this, permutations of dNS3, NS3wT and each peptide variant were fused to split fragments of Renilla luciferase (FIG. 2A).
(§1) Luciferase assay. HEK293FT cells were transfected with split luciferase constructs. In the case of drug pretreatment for dose curve experiments, drug was added at the indicated concentration at the time of transfection. Two days later, the transfected cells were lysed with 1× Ex Luciferase Assay Buffer using the Nano-Glo® Dual-Luciferase® Reporter Assay System (Promega). Immediately after, the samples were treated with an additional volume of 1× Ex Luciferase Assay Buffer with the indicated concentration of drug.
(§2) The samples were then read with a plate reader once per minute measuring luminescence with 500 millisecond exposure time. […] For kinetics analysis, linear regression analysis was performed on the untreated samples and used to normalize the data for the treated samples.

dNS3 [2] = target: T1, dNS3; type: biochemical, hepatitis C virus (HCV); details: saturating drug concentrations; 3 pM of each drug added at time of lysis
Method: as §1, §2

[3] = target: telaprevir inducible (TI) NS3 (Hepatitis C virus genotype 1b, UniProt P26663, D1194Y/F1069L/Q1106K/S1148R); type: cell-based, hepatitis C virus (HCV); details: telaprevir (10 pM); flow cytometry 48 hours post-drug addition
Description: (§3) To accomplish this, it was sought to make orthogonal inducible Cre recombinases.
(§4) For Cre recombinase control in mammalian cells, live cells were gated in the same manner as above and gated for transfection by either a co-transfection marker of pmiRFP670-N1 or inter-plasmatic constitutive expression of iRFP670 under a separate constitutive promoter. Cells were further deemed as GFP positive if their fluorescence intensity was greater than or equal to the top 1% of non-transfected cells. Baseline activation of GFP positive cells was then subtracted using transfection marker only cells as baseline for all measurements.

[4] = target: NS3(TI) with S139A mutation (Hepatitis C virus genotype 1b, UniProt P26663, D1194Y/F1069L/Q1106K/S1148R/S1165A); type: cell-based, hepatitis C virus (HCV); details: among the three drugs tested (grazoprevir, asunaprevir, telaprevir)
Description: as §3, §4

wild-type NS3 = wild-type NS3 (Hepatitis C virus genotype 1b, UniProt P26663, A1092G/F1173S/K1113A/P1112Q); type: cell-based, hepatitis C virus (HCV); details: NS3WT-NLuc and CLuc-PMED; compared with dNS3
Method: as §1, §2

dNS3-Cre-PHI = dNS3-Cre-PHI (Hepatitis C virus genotype 1b, UniProt P26663, A1092G/F1173S/K1113A/P1112Q/S1165A); details: catalytic NS3 S139A mutation (dNS3)
Description: as §4

T1 sequence (P26663 1027-1206 A1092G/P1112Q/K1113A/S1165A/F1173S): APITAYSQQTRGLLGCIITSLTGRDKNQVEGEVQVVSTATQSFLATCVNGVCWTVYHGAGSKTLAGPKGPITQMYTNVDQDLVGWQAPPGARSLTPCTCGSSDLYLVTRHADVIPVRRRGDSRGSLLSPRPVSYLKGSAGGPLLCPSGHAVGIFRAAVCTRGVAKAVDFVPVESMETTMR
Sequence of wild-type NS3 (P26663 1027-1206 A1092G/P1112Q/K1113A/F1173S): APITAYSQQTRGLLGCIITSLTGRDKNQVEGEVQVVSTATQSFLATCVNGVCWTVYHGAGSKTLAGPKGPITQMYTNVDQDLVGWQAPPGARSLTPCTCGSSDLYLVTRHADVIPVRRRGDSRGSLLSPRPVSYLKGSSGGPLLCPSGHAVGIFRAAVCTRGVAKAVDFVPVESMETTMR
Sequence of NS3(TI) with S139A mutation (P26663 1027-1206 F1069L/A1092G/Q1106K/P1112Q/K1113A/S1148R/S1165A/F1173S/D1194Y): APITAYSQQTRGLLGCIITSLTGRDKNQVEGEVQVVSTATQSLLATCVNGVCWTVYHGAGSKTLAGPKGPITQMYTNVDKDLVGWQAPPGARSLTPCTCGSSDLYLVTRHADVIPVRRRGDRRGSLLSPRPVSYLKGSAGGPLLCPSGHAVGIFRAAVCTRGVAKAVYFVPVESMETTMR
Sequence of dNS3-Cre-PHI (P26663 1027-1206 A1092G/P1112Q/K1113A/S1165A/F1173S): as the sequence (P26663 1027-1206 A1092G/P1112Q/K1113A/S1165A/F1173S) above
Sequence of telaprevir inducible (TI) NS3 (P26663 1027-1206 F1069L/A1092G/Q1106K/P1112Q/K1113A/S1148R/F1173S/D1194Y): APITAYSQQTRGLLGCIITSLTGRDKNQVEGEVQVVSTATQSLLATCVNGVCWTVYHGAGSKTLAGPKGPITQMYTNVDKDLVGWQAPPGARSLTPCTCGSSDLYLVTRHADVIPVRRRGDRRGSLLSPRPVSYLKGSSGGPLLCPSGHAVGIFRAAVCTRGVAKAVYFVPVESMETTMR

Row | Structure (SMILES) | Luciferase activity, dose response (dNS3 [1]) | Dissociation of dNS3-PMED complexes (temporal turn-off) (dNS3 [2]) | Induction of Cre recombination, telaprevir inducible (TI) construct [3] | Drug sensitivity of NS3(TI) Cre with NS3 S139A mutation [4] | Luciferase activity, dose response with wild-type NS3 (wild-type NS3) | Effect of NS3 S139A mutation alone on drug induction of Cre (dNS3-Cre-PHI)
1 | CC(C)(C)OC(=O)N[C@H]1CCCCC/C=C\[C@@H]2C[C@@]2(C(=O)NS(=O)(=O)C2CC2)NC(=O)[C@@H]2C[C@@H](OC(=O)N3Cc4cccc(F)c4C3)CN2C1=O [danoprevir, Danoprevir] | inhibit luciferase activity in a dose dependent manner | – | – | – | – | –
2 | CCC[C@H](NC(=O)[C@@H]1[C@H]2CCC[C@H]2CN1C(=O)[C@@H](NC(=O)[C@@H](NC(=O)c1cnccn1)C1CCCCC1)C(C)(C)C)C(=O)C(=O)NC1CC1 [telaprevir] | significant resistance | did not dissociate dNS3-PMD complexes well | strongly induced | ablates telaprevir sensitivity | effect is reverted | reduce telaprevir sensitivity
